Results reported in patent publication US6586460B1, “Heteroarotinoids containing urea or thiourea linker” (The Board of Regents for Oklahoma State University, priority 2001, dated 2003).
Where “and” joins values, the source holds several entries; their conditions need not be identical. Identical values can stand only once.

Legend:
[1] = system: C-33A; assay: Growth inhibition assay (SRB); assay type: cell-based; conditions: 10 μM, three-day treatment, Table I
Text: (§1) To illustrate the general and useful biological activity of the heteroarotinoids described in this invention, selected compounds were screened for ability to inhibit the growth of three ovarian cancerous cell lines, namely Caov, SKOV, and OVCAR cell lines, three cervical cell lines (Cervix HPV-Wt p53, Cervix HPV-Mut p53, and Cervix HPV-Mut p53), and one vulvar (Vulvar HPV-Mut p53) cell line as shown in Tables I-III. The cell lines and the technology have been previously described [See Journal of Medicinal Chemistry, 1999, Vol. 42, pages 3602-3614 in an article entitled “Synthesis, Structure-Activity Relationships, and RAR γ-Ligand Interactions of Nitrogen Heteroarotinoids” by A. Dhar, S. Liu, J. Klucik, K. D. Berlin, M. M. Madler, S. Lu, R. T. Ivey, D. Zacheis, C. W. Brown, E. C. Nelson, P. J. Birckbichler, and D. M. Benbrook], but the general technique was slightly modified. Cultures of the cancerous cells were plated in volumes of 150 μL in 96-well microtiter plates at concentrations of 2000-4000 cells/well, depending upon the cell line used. Retinoids were added the next day at 4× the concentrations in 50 μL of media resulting in 1, 2, 3, 4, 5, 7, and 10 μM final concentrations of each retinoid. Control cultures were treated with the same volume of DMSO. After 3 days of treatment, the cell density in each well was determined by fixing the cells in trichloroacetic acid followed by staining the cytoplasmic proteins with sulforhoamine B (SRB). After rinsing, the SRB was solubilized in Tris-HCl, and the optical density of each culture was determined with a MR600 microtiter plate reader. Each experiment was performed in triplicate, and the three values of each treatment were averaged. The average OD of the treated cultures was divided by that of the control cultures treated with solvent alone. To determine the percent growth inhibition, this ratio was subtracted from 1 and multiplied by 100. Tables I, II, and III contain representative examples of the inhibition of growth by the inventive heteroarotinoids of the cancerous cell lines investigated at two independent concentrations (1 and 10 μM). As standards for comparison purposes, trans-retinoic acid (t-RA), 9-cis-retinoic acid (9-c-RA), 13-cis-retinoic acid (13-c-RA), and […] (4-HPR) were added in parallel experiments along with the heteroarotinoids and with dimethyl sulfoxide (DMSO) as the solvent. For convenience, the data in Tables II and III are duplicated and ranked according to tumor type.

[2] = system: CAOV-3; assay: Growth inhibition assay (SRB); assay type: cell-based; conditions: for Percentage of growth inhibition, CAOV−3: 3 days of treatment
Text: as §1

[3] = system: HT-3; assay: Growth inhibition assay (SRB); assay type: cell-based; conditions: 10 μM, three-day treatment, Table I
Text: as §1

[4] = system: SK-OV-3; assay: Growth inhibition assay (SRB); assay type: cell-based; conditions: for Percentage of growth inhibition, SKOV−3: 3 days of treatment
Text: as §1

[5] = system: SW962; assay: Growth inhibition assay (SRB); assay type: cell-based; conditions: 10 μM, three-day treatment, Table I
Text: as §1

[6] = system: SiHa; assay: Growth inhibition assay (SRB); assay type: cell-based; conditions: 10 μM, three-day treatment, Table I
Text: as §1

[7] = system: OVCAR-3; assay: Growth inhibition assay (SRB); assay type: cell-based, human; conditions: for Percentage of growth inhibition, OVCAR−3: 3 days of treatment
Text: as §1

[8] = system: ovarian carcinoma cell line OVCAR-3; assay: Apoptosis in organotypic culture, TUNNEL assay; assay type: cell-based, human; conditions: 1 μM, two weeks, organotypic culture, TUNNEL assay
Method: In another experiment, the ovarian carcinoma cell line OVCAR-3 was grown in organotypic culture. After one week, the cultures were treated with 1 μM solution of heteroarotinoids 11, 12, and 13, or with the same volume of DMSO (solvent), for two weeks. Both 9-c-RA and 4-HPR were used as controls. At the end of the time, the cultures were fixed in sectioned, and stained with the TUNNEL assay to detect apoptosing cells. An experienced pathologist quantitated the percent of apoptosing cells by light microscopic examination.

[9] = system: SW962 vulvar carcinoma cultures; assay: Apoptosis assay, Annexin-V-Flous/propidium iodide flow cytometry; assay type: cell-based
Text: Optimal chemotherapeutic agents will selectively kill tumor cells by inducing a natural form of cell death which is called “apoptosis”. Toxic agents kill both normal and tumor cells via a nonspecific process known as “necrosis”. To differentiate between apoptosis and necrosis in heteroarotinoid-treated cultures, a flow cytometric assay was employed. Treated cultures were stained with Annexin-V-Flous and propidium iodide, and the intensities of the stains are quantitated with Flow Cytometry. The Annexin-V-Flous binds to phosphatidyl serine on the exterior of apoptosing cells. This assay is specific for apoptosing cells because phosphatidyl serine is normally located on the inner membrane of the cells, a situation whereby the serine derivative cannot be bound by Annexin. However, during apoptosis, phosphatidyl serine is translocated to the outer membrane. The Flous moiety emits a signal that can be detected and quantitated by Flow Cytometry. In contrast, propidium iodide is taken up by necrotic cells that have lost membrane integrity. In this study, t-RA was used as a control for the non-apoptotic retinoids, and 4-HPR was used as a control for the apoptotic retinoids.

[10] = Liver toxicity (plasma ALT activity, liver sections); assay type: in vivo; conditions: 10 mg/kg/day p.o.
Text: Toxic compounds can induce livers to release enzymes called serum transaminases, such as alanine aminotransferase (ALT). The assay for ALT is the most universally accepted clinical laboratory marker used to evaluate hepatic toxicity induced by pharmaceuticals [See “Serum Transferase Elevations as Indicators or Hepatic Injury Following the Administration of Drugs”, Reg. Tox. Pharm., volume 27, 1998, pp 119-130, by D. E. Amacher]. At the end of the treatment period, blood was drawn from each animal. Plasma was separated by centrifugation and stored at −70° C. The activity of ALT was determined in aliquots of plasma by standard spectrophotometric enzymatic techniques which were based upon the reduction of pyruvate by lactate dehydrogenase [See “Aged Mice are Resistant to the Hepatotoxic Effects of Endotoxin and Galactosamine” in Exp. Mol. Pathology, volume 59, 1993, pp 27-37]. The method measures the disappearance of NADH from time of incubation at 37° C. The activities have been expressed in μm/Liter/min (Table VI). Two different amounts of plasma were utilized in each assay to assure the measurement of the maximum rate.
There were no statistically significant differences between the ALT activities in the different treatment groups (Table VI, t-test: P>0.05). All numbers were in the normal range (63 to 307 μm/Liter/Min) of ALT values for the species of mouse utilized. All liver sections were assessed by an experienced pathologist in a blinded manner. The degree of necrosis was very mild in all animals.

[11] = system: OVCAR-3 cisplatin-resistant ovarian carcinoma cell line; assay: Cisplatin chemosensitization (MTS assay); assay type: cell-based, human; conditions: for chemosensitization to cisplatin (percent growth, FIG. 2): 1 μM retinoid 3 days before and 3 days after one hour of cisplatin (40 μM or 1 μg/ml)
Method: The compounds of the present invention also find advantage over the standard retinoids, including retinoic acid and 4-HPR as chemosensitization agents. In another study, ovarian carcinoma cultures, including cisplatin-resistant cultures, were trypsinized and plated in microtiter plates at a concentration of 1000 cells per well. A series of natural and synthetic retinoids, including exemplar heteroarotinoids with the novel three atom linker, at a concentration of 5 μM were added to triplicate wells in the microtiter plates twenty-four hours later. The same volume of DMSO used to administer the compounds were added to the control cultures. After three days of treatment, a range of cisplatin concentrations were added to the wells. After one hours of exposure, the media and retinoid drugs were replenished. Cell survival was quantitated using the MTS assay (Promega). […] Thus, the present invention contemplates the process of sensitizing cells to cisplatin therapy and combined cisplatin and radiation therapy using the inventive heteroarotinoids.
In this regard, the cisplatin resistant OVCAR-3 cell line was pre-treated with a concentration of 1 μM of the indicated retinoids for 3 days, and then exposed to cisplatin at the concentration detected in tumors of treated patients (40 μM or 1 μg/ml). […] After one hour of cisplatin exposure, the cisplatin was removed and the cultures were grown in the presence of 1 μM of the indicated retinoids for an additional 3 days. The number of living cells present was then determined using the MTS (3-(4,5-dimethylthiazol-2-yl)-5-(3-carboxymethoxyphenyl)-2H-tetrazolium inner salt) assay (Promega). In the MTS assay, metabolically active cells reduce the MTS compound to an aqueous soluble formazan resulting in an absorbance that can be measured at 490 nm (Promega Technical Bulletin No.169). The optical density at 490 nm (OD490) of the MTS-treated cultures is then determined and used as a measure of the number of living cells in each well. The percent growth is determined by dividing the OD490 of the treated cultures by the OD490 of the untreated control cultures.

[12] = 10 μM, three-day treatment, Table I

Compound	Percentage of growth inhibition, SKOV−3 ([4]; 1 μM, Table II)	Percentage of growth inhibition, SKOV−3 ([4]; 10 μM, Table III)	Percentage of growth inhibition, OVCAR−3 ([7]; 1 μM, Table II)	Percentage of growth inhibition, OVCAR−3 ([7]; 10 μM, Table III)	% APOPTOSIS of OVCAR-3 cells [8]	Percentage of induction of apoptosis in SW962 vulvar carcinoma cultures ([9]; Days 0)	Percentage of induction of apoptosis in SW962 vulvar carcinoma cultures ([9]; Days 1)	Percentage of induction of apoptosis in SW962 vulvar carcinoma cultures ([9]; Days 3)	chemosensitization to cisplatin (percent growth, FIG. 2) [11]	Percentage of growth inhibition, CAOV−3 ([2]; 1 μM, Table II)	Percentage of growth inhibition, CAOV−3 ([2]; 10 μM, Table III)	also measured
9-cis-retinoic acid [9-c-RA, reference compound]	23.0%	16.0%	6.2%	5.3%	80%	–	–	–	–	–	–	Percentage growth inhibition, C-33A (Cervix HPV− Mut p53) [1]: 44%; Percentage growth inhibition, CAOV-3 (Ovarian HPV− Mut p53) [2, 12]: 27%; Percentage growth inhibition, HT-3 (Cervix HPV− Mut p53) [3]: 47%; Percentage growth inhibition, SK-OV-3 (Ovarian HPV− Null p53) [4, 12]: 30%; Percentage growth inhibition, SW962 (Vulva HPV− Mut p53) [5]: 31%; Percentage growth inhibition, SiHa (Cervix HPV+ Wt p53) [6]: 24%; Percentage growth inhibition, OVCAR-3 (Ovarian HPV− Mut p53) [7, 12]: 28%
CC1=C(/C=C/C(C)=C/C=C/C(C)=C/C(=O)Nc2ccc(O)cc2)C(C)(C)CCC1 [4-HPR, 4-hydroxyphenylretinamide, reference compound]	7.2%	64.9%	2.7%	43.1%	95%	3%	1.67%	17.28%	but not 4-HPR are effective	–	–	Percentage of induction of apoptosis in SW962 vulvar carcinoma cultures ([9]; Days 2): 3.6%; liver toxicity (ALT activities, liver sections assessed by pathologist) ([10]; mice): do not appear to induce significant liver toxicity; ALT ACTIVITY ([10]; plasma of mice at end of treatment period): 149.7 ± 140.9 μm/Liter/Min; chemosensitization to cisplatin (cell survival, MTS) ([11]; 5 μM retinoid, three days, then range of cisplatin concentrations): prevented the growth increase
Cc1cc([N+](=O)[O-])ccc1NC(=S)Nc1ccc2c(c1)C(C)(C)CC(C)(C)S2 [heteroarotinoid 16]	−1.67%	52.81%	10.20%	74.05%	–	–	–	–	effective	15.33%	83.22%	–
CCOC(=O)c1ccc(NC(=O)Nc2cccc3c2SC(C)(C)CC3(C)C)cc1 [heteroarotinoid 24]	1.86%	7.98%	−2.16%	26.53%	–	–	–	–	effective	17.55%	53.11%	–
trans-retinoic acid [t-RA, reference compound]	8.8%	6.0%	6.0%	−3.0% and 3.0%	–	3%	2.53%	1.25%	–	–	–	Percentage of induction of apoptosis in SW962 vulvar carcinoma cultures ([9]; Days 4): 4.5%; Percentage of induction of apoptosis in SW962 vulvar carcinoma cultures ([9]; Days 7): 3.51%
